Measured values from patent publication US4288441A, “Nicotinoyl pantetheine derivatives” (priority 1980, dated 1981).
Where two headings read alike, the source gives them in different places.

Experiments:
in vivo = conditions: rat, po, 62.2 mg/kg
Source text: (§4) On the other hand, upon oral administration of each compound, i.e., nicotinic acid and S-nicotinate to groups of rats, the plasma nicotinic acid levels in the rats were studied. […] The other experimental conditions were the same as those described above.

serum free fatty acids = experiment: Serum free fatty acids in alcoholic fatty liver rats (Table III); assay type: in vivo, male Sprague-Dawly rats; conditions: 0.1 mmole/kg/day for five days, n=6
Protocol: (§1) The effects of S-nicotinate were confirmed by an experiment in which alcoholic fatty liver rats were used according to the method described by A. Hosein et al., Biochemical Pharmacology, 24, page 1859, 1975.
(§2) In this experiment, male Sprague-Dawly rats, age 6 weeks, were treated as follows. The rats received 10 ml of 40% ethanol solution per kg of body weight for 3 days (at 10:00 AM on the day of sacrifice and at 4:00 PM on the other days) by gastric intubation. S-nicotinate was suspended in 0.5 (v/v)% Tween 80 aqueous solution and administered for five days (at 9:00 AM) including the day of sacrifice. After sacrificing the rats (at 1:00 PM), the total cholesterol was measured according to the Bennie Zak method (American Journal of Clinical Pathology, 27, page 583, 1957) and free fatty acid was measured by the method described by K. Itaya et al., Journal of Lipid Research, 6, page 16, 1965.

[1] = rat, in vivo, po
Source text: as §4

[2] = Plasma nicotinic acid levels in rats after oral administration (Table II)
Source text: as §4

serum triglyceride = experiment: Serum levels of triglyceride in rats after oral administration (Table I); assay type: in vivo; conditions: for Serum level of triglyceride (TG): oral, n=6, nicotinic acid 20 mg/kg, S-nicotinate 62.2 mg/kg (equimolar)
Protocol: (§3) At the time specified in Table I, the rats were killed by pentobarbital (30 mg/kg, i.p.) anesthesia and blood was withdrawn by the carotid. The serum separated from the blood samples was assayed for free fatty acid (according to a variation of the Elphic method) and triglyceride (according to the enzyme method).

[3] = Acute toxicity in mice (Table IV); conditions: mouse, in vivo
Protocol: The acute toxicity test was conducted as follows. STD ddY strain mice, weight male 17.2-20.5 g, female 17.5-19.7 g, were used. The mice were fed on forage and water freely and kept at constant environmental conditions (temperature 23±1° C., relative humidity 55±5%, and 12 hours light) before the test. Samples of S-nicotinate water solutions (0.3 ml/10 g of body weight) were administered to each group (n=10) of mice in order to achieve levels of 5 g/kg and 10 g/kg, respectively.

serum cholesterol = experiment: Serum cholesterol in alcoholic fatty liver rats (Table III); assay type: in vivo, male Sprague-Dawly rats; conditions: 0.1 mmole/kg/day for five days, n=6
Protocol: as §1, §2

serum free fatty acid = experiment: Serum levels of free fatty acid in rats after oral administration (Table I); assay type: in vivo; conditions: for Serum level of free fatty acid (FFA): oral, n=6, nicotinic acid 20 mg/kg, S-nicotinate 62.2 mg/kg (equimolar)
Protocol: as §3

[4] = cited from earlier work
[5] = 30 min, * = significant difference from control
[6] = rats, compared with nicotinic acid

For CC(C)(CO)C(O)C(=O)NCCC(=O)NCCSC(=O)c1cccnc1 (stereo not shown) [S-nicotinate, 2,4-dihydroxy-N-[2-((2-mercaptoethyl)carbamoyl)ethyl]-3,3-dimethylbutyramide S-nicotinate], which concentration at 0.5 h (in vivo) is on record?
Its concentration at 0.5 h is 5200 ± 300 ng/mL.

What about the concentration at 1 h (in vivo) of the same compound?
The concentration at 1 h was 3300 ± 300 ng/mL.

What about the concentration at 1.5 h (in vivo) of the same compound?
The concentration at 1.5 h was 700 ± 400 ng/mL.

And the “Serum free fatty acids” value (serum free fatty acids)?
Its value is 236±21.33 μEq/l.

And the “Plasma nicotinic acid at 120 minutes, in words” value [1]?
The value was “essentially disappeared”.

And the “Activity in maintaining a satisfactory level of free nicotinic acid in the blood, in words” value ([2]; S-nicotinate itself vs nicotinic acid, inferred from experimental results)?
Its value is “has the same activity as nicotinic acid itself”.

What about the “Serum level of triglyceride (TG)” value (serum triglyceride; [5]) of the same compound?
The value was 43.7 ± 5.7 mg/dL.

And the “Serum level of triglyceride (TG)” value (serum triglyceride; 60 min)?
Its value is 22.2 ± 1.1 mg/dL.

And the “Serum level of triglyceride (TG)” value (serum triglyceride; 90 min)?
Its value is 25.5 ± 3.3 mg/dL.

What about the “Serum level of triglyceride (TG)” value (serum triglyceride; 120 min) of the same compound?
The value was 29.2 ± 1.6 mg/dL.

What about the “Serum level of triglyceride (TG)” value (serum triglyceride; 360 min) of the same compound?
The value was 33.5 ± 8.0 mg/dL.

And the “Effect on serum level of triglyceride, in words” value (serum triglyceride; [6])?
The value was “decreases serum levels of free fatty acid and triglyceride in rats as well as nicotinic acid does”.

What about the LD50 ([3]; iv) of the same compound?
Its LD50 is 1600 mg/kg.

And the LD50 ([3]; po)?
The LD50 was greater than 10000 mg/kg.

What about the Serum cholesterol (serum cholesterol) of the same compound?
The Serum cholesterol was 79.0 ± 4.23 mg/dL.

And the “Serum level of free fatty acid (FFA)” value (serum free fatty acid; [5])?
The value was 0.13±0.01 mEq/1.

And the “Serum level of free fatty acid (FFA)” value (serum free fatty acid; 60 min)?
The value was 0.13±0.01 mEq/1.

What about the “Serum level of free fatty acid (FFA)” value (serum free fatty acid; 90 min) of the same compound?
The value was 0.15±0.03 mEq/l.

And the “Serum level of free fatty acid (FFA)” value (serum free fatty acid; 120 min)?
Its value is 0.20±0.04 mEq/l.

And the “Serum level of free fatty acid (FFA)” value (serum free fatty acid; 360 min)?
Its value is 0.46±0.05 mEq/l.

What about the “Effect on serum level of free fatty acid, in words” value (serum free fatty acid; [6]) of the same compound?
Its value is “decreases serum levels of free fatty acid and triglyceride in rats as well as nicotinic acid does”.

With O=C(O)c1cccnc1 [nicotinic acid] as the compound, how does the “Effect on blood lipids” value ([4]; cholesterol, triglycerides, phospholipids and free fatty acids in blood, well known) read?
The value was “reduces the levels of lipids such as cholesterol, triglycerides, phospholipids and free fatty acids in blood”.

What about the “Side-effects at higher doses” value ([4]; clinical treatment, higher doses) of the same compound?
The value was “flushing of the face, itching and gastrointestinal impediments”.

And the “Nicotinic acid level in the blood, in words” value ([4]; clinical treatment, normal dosage levels)?
Its value is “rapidly decreases”.

And the Vasodilator effect ([4]; well known)?
The Vasodilator effect was “vasodilator effect”.

And the “Plasma nicotinic acid level, in words” value ([2]; 10 mg/kg nicotinic acid, at 60 minutes)?
Its value is “almost a trace amount or was not detectable”.

What about the “Plasma nicotinic acid level” value ([2]; 360 min, oral, nicotinic acid 20 mg/kg, S-nicotinate 62.2 mg/kg) of the same compound?
The value was 0 ± 0 µg/mL.

And the Cmax at 0.5 h ([2]; rat, plasma, po, 10 mg/kg)?
The Cmax at 0.5 h was 8300 ng/mL.

What about the Tmax ([2]; rat, plasma, po, 10 mg/kg) of the same compound?
Its Tmax is 30 min.

And the concentration at 0.5 h ([2]; rat, plasma, po, 20 mg/kg)?
Its concentration at 0.5 h is 42800 ± 1200 ng/mL.

And the concentration at 1 h ([2]; rat, plasma, po, 20 mg/kg)?
Its concentration at 1 h is 22200 ± 1600 ng/mL.

What about the concentration at 1.5 h ([2]; rat, plasma, po, 20 mg/kg) of the same compound?
Its concentration at 1.5 h is 6700 ± 1600 ng/mL.

What about the concentration at 2 h ([2]; rat, plasma, po, 20 mg/kg) of the same compound?
Its concentration at 2 h is 400 ± 300 ng/mL.

What about the “Plasma nicotinic acid at 120 minutes, in words” value ([2]; rats, 120 min after oral administration) of the same compound?
The value was “essentially disappeared”.

What about the “Rebound effect in the plasma nicotinic acid level” value ([2]; rats, compared with S-nicotinate) of the same compound?
Its value is “far larger rebound effect”.

What about the “Serum level of triglyceride (TG)” value (serum triglyceride; [5]) of the same compound?
The value was 35.0 ± 2.3 mg/dL.

What about the “Serum level of triglyceride (TG)” value (serum triglyceride; 60 min) of the same compound?
The value was 18.0 ± 0.7 mg/dL.

And the “Serum level of triglyceride (TG)” value (serum triglyceride; 90 min)?
The value was 21.2 ± 2.5 mg/dL.

What about the “Serum level of triglyceride (TG)” value (serum triglyceride; 120 min) of the same compound?
Its value is 26.2 ± 1.1 mg/dL.

What about the “Serum level of triglyceride (TG)” value (serum triglyceride; 360 min) of the same compound?
Its value is 32.5 ± 3.1 mg/dL.

And the “Serum level of free fatty acid (FFA)” value (serum free fatty acid; [5])?
Its value is 0.19±0.09 mEq/1.

What about the “Serum level of free fatty acid (FFA)” value (serum free fatty acid; 60 min) of the same compound?
The value was 0.12±0.01 mEq/1.

And the “Serum level of free fatty acid (FFA)” value (serum free fatty acid; 90 min)?
The value was 0.13±0.02 mEq/l.

And the “Serum level of free fatty acid (FFA)” value (serum free fatty acid; 120 min)?
The value was 0.23±0.07 mEq/l.

And the “Serum level of free fatty acid (FFA)” value (serum free fatty acid; 360 min)?
The value was 0.49±0.04 mEq/l.

For pantothenolnicotinate, which “Effect on blood cholesterol level” value ([4]; Japanese published patent specification No. 40-18109) is on record?
Its value is “able to decrease the blood cholesterol level”.
